pKa, AUC and Cmax data for one molecule are collected here from patent US20200315984A1 (priority 2013, published 2020).

Structures are written as SMILES. Read-outs that look alike come from different tables or passages of the source.

The conditions of data set [1]: cited from earlier work.
Data set [2] is described as follows: Extrapolated absorption data for dual-film dosage. The data set is classed as in vivo. Conditions: human, plasma, dual-layered film; for AUC: local pH 3.5 and 5.5, read-out: Naloxone AUC; for Cmax: local pH 3.5 and 5.5, read-out: Naloxone Cmax. On the procedure:
A dual-film dosage is prepared, with the first film layer having a local pH of about 3.5 and containing an antagonist therein, and the second film layer having a local pH of about 5.5 and containing an agonist therein. In this dual-film dosage, the first film layer (having the antagonist) is a fast-dissolving film, while the second film layer (having the agonist) is a moderate dissolving film.

Setting [3] is: other: sublingual or buccal film.
[4] abbreviates: other: sublingual/buccal film dissolved in the oral cavity.

`C=CCN1CC[C@]23c4c5ccc(O)c4O[C@H]2C(=O)CC[C@@]3(O)[C@H]1C5` [naloxone]: the pKa entry in data set [1] is reported as “about 7.94”. Moreover, in data set [2] (setting [3]), the AUC was 0.0905 to 0.724 ng·h/mL and the Cmax was 0.0325 to 0.26 ng/mL. In data set [2] (setting [4]), the AUC is 0.0906 to 0.724 ng·h/mL and the Cmax is 0.0325 to 0.26 ng/mL.

In general, AUC refers to concentration integrated over time. Usually Cmax stands for the maximum level reached in the sampled fluid or tissue.
